Legend:
Format in all cases: physicochemical
[1] = Differential scanning calorimetry (transition point, heat resistance); settings: DSC endothermic peak indicating phase transition; powder in aluminum pan heated up to 550° C.
Protocol: In the following examples, reactions and measurements in an inert gas atmosphere were conducted with use of a solvent obtained by anhydrous distillation, and other reactions and operations were conducted with use of commercial Grade 1 or Special Grade solvents. The reagents were purified, as required, by anhydrous distillation or the like, and otherwise commercially available Grade 1 or Special Grade reagents were employed. In the examples, following analytical instrument and measurement instrument were employed. The nuclear magnetic resonance spectroscopy was conducted by means of LAMBDA-NMR (395.75 MHz, σ value, ppm, internal standard TMS). The differential scanning calorimetry was conducted by means of a differential scanning calorimeter METTLER-TOLED DSC1.
About 2 mg of each organic compound powder was weighed out and fed hermetically in an aluminum pan. Each sample was set on a differential scanning calorimeter and heated up to 550° C.

[2] = Measurement of solubility in organic solvents at 25° C.; settings: for Solubility in organic solvent at 25° C., chloroform / Solubility in organic solvent at 25° C., THN / Solubility in organic solvent at 25° C., toluene: visual inspection; for Solubility in organic solvent at 25° C., THN: tetrahydronaphthalene (THN)
Protocol: (§1) About 1 mg of each organic compound powder was weighed and fed into vials, and the weight of the content in each vial was measured precisely. Into these vials, chloroform, toluene, and tetrahydronaphthalene (THN) were added at 25° C. (room temperature). When the added solvent dissolved completely, the mass was measured precisely again. The mass of the organic compound was divided by the total weight of the organic compound and the added solvent, and was multiplied by 100 to obtain solubility. Dissolution or non-dissolution was judged by visual inspection.

[3] = Storage stability in a solution state (solution state after one week); settings: solutions of the solubility test
Source text: The organic compound represented by Formula (A) is required to be soluble in an organic solvent. The organic solvent is not particularly limited as far as being capable of dissolving the organic compound represented by Formula (A). Considering environmental problems and other conditions, the organic solvent is preferably and practically a non-halogenated solvent. Further, considering the stability of a solution obtained by dissolving the organic compound represented by Formula (A) in the organic solvent, the organic compound represented by Formula (A) needs to have reasonably high solubility at room temperature. In the organic solvent, the solubility of the organic compound represented by Formula (A) at 25° C. is usually 0.1 mass % or higher, preferably 0.3 mass % or higher, more preferably 0.5 mass % or higher, and further preferably 0.7 mass % or higher. In chloroform, the solubility of the organic compound represented by Formula (A) at 25° C. is usually 0.1 mass % or higher, preferably 0.3 mass % or higher, more preferably 0.5 mass % or higher, and further preferably 0.7 mass % or higher. In toluene, the solubility of the organic compound represented by Formula (A) at 25° C. is usually 0.1 mass % or higher, preferably 0.3 mass % or higher, more preferably 0.5 mass % or higher, and further preferably 0.7 mass % or higher. In tetrahydronaphthalene, the solubility of the organic compound represented by Formula (A) at 25° C. is usually 0.1 mass % or higher, preferably 0.3 mass % or higher, more preferably 0.5 mass % or higher, and further preferably 0.7 mass % or higher.
as §1

| Peak top temperature [1] | Solubility in the organic solvent at 25° C. relative to the organic compound in Comparative example 2 ([2]; at the maximum, versus Comparative example 2) | Solubility compared with the organic compound in Comparative example 1 ([2]; organic solvent, 25° C., versus Comparative example 1) | Solubility in organic solvent at 25° C., chloroform ([2]; 25° C.) | Solubility in organic solvent at 25° C., THN ([2]; 25° C.) | Solubility in organic solvent at 25° C., toluene ([2]; 25° C.) | Solution state after one week [3] | Structure (SMILES) |
| --- | --- | --- | --- | --- | --- | --- | --- |
| ≤ 150 °C | – | – | – | – | – | – | CCCCCCCCCCc1ccc2c(c1)sc1c3ccc(-c4ccccc4)cc3sc21 [Comp. Ex. 3, reference compound] |
| – | ≥ 10 times | higher solubility | – | – | – | – | CCCCCCc1ccc2cc3sc4c5cc(-c6ccccc6)ccc5sc4c3cc2c1 [Organic compound 1] |
| 218 °C | – | – | 0.5 mass % | 0.5 mass % | 0.5 mass % | no precipitation | CCCCc1ccc2sc3c4cc5cc(-c6ccccc6)ccc5cc4sc3c2c1 [Organic compound 4] |
| 186 °C | – | – | 0.4 mass % | 0.4 mass % | 0.4 mass % | no precipitation | CCCCCCCCc1ccc2sc3c4cc5cc(-c6ccccc6)ccc5cc4sc3c2c1 [Organic compound 5] |
| 185 °C | – | – | 0.3 mass % | 0.3 mass % | 0.2 mass % | no precipitation | CCCCCCCCCCc1ccc2cc3sc4c5cc(-c6ccccc6)ccc5sc4c3cc2c1 [Organic compound 6] |
| 229 °C | – | – | >2 mass % | 1.4 mass % | 0.9 mass % | no precipitation | CCCCCCc1ccc2cc3sc4c5cc(-c6ccc(CC)cc6)ccc5sc4c3cc2c1 [Organic compound 8] |
| 244 °C | – | – | – | – | – | – | CCCCCc1ccc(-c2ccc3sc4c5cc6cc(-c7ccccc7)ccc6cc5sc4c3c2)cc1 [Organic compound 9] |
